The values that follow come from US20160361302A1, “SNS-595 AND METHODS OF USING THE SAME” (Sunesis Pharmaceuticals, Inc., priority 2004, published 2016).

Like-named read-outs stand apart in the source and are kept apart here.

A short description of this data set: Pharmacokinetics of SNS-595 in cancer patients. The class given is in vivo, human. The note with it: for AUC(0-inf): read-out: AUCINF_obs. On the procedure:
SNS-595 was administered to enrolled patients for up to six cycles. A cycle is defined as a three-week period, with SNS-595 administered on the first day of each cycle (day 0), followed by at least 21 days of observation. SNS-595 was administered to cohorts of at least 3 patients and dose escalation occurred by sequential cohort.

The mark [1] stands for this setting: dose 6 mg/m2, cancer patients, plasma.
Setting [2] is: dose 12 mg/m2, cancer patients, plasma.
[3] abbreviates: dose 24 mg/m2, cancer patients, plasma.
[4] abbreviates: dose 48 mg/m2, cancer patients, plasma.
The mark [5] stands for this setting: human, dose 12 mg/m2, cancer patients, plasma.

A word on the Cmax: it is the peak of the concentration-time curve. A word on the AUC(0-t): it is exposure summed from dosing to a finite time, without extrapolation to infinity.

Regarding `CN[C@H]1CN(c2ccc3c(=O)c(C(=O)O)cn(-c4nccs4)c3n2)C[C@@H]1OC` [SNS-595, (+)-1,4-dihydro-7-[(3S,4S)-3-methoxy-4-(methylamino)-1-pyrrolidinyl]-4-oxo-1-(2-thiazoyl)-1,8-naphthyridine-3-carboxylic acid], the Vs_obs (dose 2 mg/m2, cancer patients, plasma) is on record as 1.38 L/kg; the Vs_obs under setting [1] worked out at 1.28 L/kg; the Vs_obs under setting [2] was 1.17 L/kg; the Vs_obs under setting [3] was 1.18 L/kg; the Vs_obs under setting [4] came to 1.37 L/kg. The AUClast by setting is: under setting [1], 2408.08 ng·h/mL; under setting [3], 11132.02 ng·h/mL. The CI_obs reads like this: under setting [1], 0.71 mL/min/kg; under setting [2], 0.78 mL/min/kg; under setting [3], 0.83 mL/min/kg. Moreover, the Cmax turned out to be 347.06 ng/mL under setting [1], 2702.33 ng/mL under setting [3] and 2342.00 ng/mL under setting [4]. Moreover, the AUC(0-inf) is, setting by setting: (human, dose 6 mg/m2, cancer patients, plasma) 2800 ng·h/mL; under setting [5], 5230 ng·h/mL. Under setting [5], this compound came in with an AUC(0-t) of around 6280 ng·h/mL. The “Consistency of pharmacokinetic properties among patients” value (patients in the same cohort) is “remarkably consistent among patients in the same cohort”.
